From patent publication US11208400B2, “Substituted 6-(1H-pyrazol-1-yl)pyrimidin-4-amine derivatives and uses thereof” (Bayer Aktiengesellschaft, priority 2016, dated 2021) come the findings set out here.

The structures appear in SMILES notation.

The test addresses T1, human Npt2a (Homo sapiens, UniProt Q06495).
T1 construct: expressed in transfected cells
T1 sequence (Q06495 1-639): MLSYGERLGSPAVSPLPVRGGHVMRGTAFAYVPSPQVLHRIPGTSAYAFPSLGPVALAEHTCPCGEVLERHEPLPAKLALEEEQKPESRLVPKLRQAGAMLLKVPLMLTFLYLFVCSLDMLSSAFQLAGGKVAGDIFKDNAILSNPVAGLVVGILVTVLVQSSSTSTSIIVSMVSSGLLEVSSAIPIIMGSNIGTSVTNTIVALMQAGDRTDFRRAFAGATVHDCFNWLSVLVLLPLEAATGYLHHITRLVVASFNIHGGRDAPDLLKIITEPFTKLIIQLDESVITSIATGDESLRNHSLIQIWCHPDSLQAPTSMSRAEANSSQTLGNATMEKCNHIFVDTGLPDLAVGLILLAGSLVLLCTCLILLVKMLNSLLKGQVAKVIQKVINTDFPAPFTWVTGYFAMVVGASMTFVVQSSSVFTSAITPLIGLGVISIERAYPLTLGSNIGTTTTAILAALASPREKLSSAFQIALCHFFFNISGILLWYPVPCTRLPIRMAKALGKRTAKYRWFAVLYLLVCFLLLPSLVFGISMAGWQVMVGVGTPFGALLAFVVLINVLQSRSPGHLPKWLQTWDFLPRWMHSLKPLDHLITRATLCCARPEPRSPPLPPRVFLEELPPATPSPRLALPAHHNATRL
The test is described as follows: Npt2a activity cell based assay, membrane potential dye, CHO T-REx hNpt2a cells. The conditions noted are these: doxycycline-induced, depolarization by sodium phosphate influx, average or median values if tested more than once. In short, it runs like this: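 Doxycycline-induced (0.5 μg/mL, 24 h) CHO T-REx cells were loaded with membrane potential dye in sodium-free NHE buffer (pH 7.4) and exposed to compound (50 μM–1 nM, 5 min, room temperature).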
For the compound `Cc1nn(-c2cc(Nc3c(C)c(-c4ccc(C#N)cc4)nn3CC3CC3)ncn2)c(C)c1C(F)(F)F` [Example 373, 4-[1-(cyclopropylmethyl)-5-({6-[3,5-dimethyl-4-(trifluoromethyl)-1H-pyrazol-1-yl]pyrimidin-4-yl}amino)-4-methyl-1H-pyrazol-3-yl]benzonitrile], the concentration for half-maximal inhibition (IC50) came out at 5 nM.

On to `Cc1nn(-c2cc(Nc3c(C)c(-c4ccc(OC(F)(F)F)cc4)nn3C)ncn2)c(C)c1C(C)(C)O` [Example 377, 2-{1-[6-({1,4-dimethyl-3-[4-(trifluoromethoxy)phenyl]-1H-pyrazol-5-yl}amino)pyrimidin-4-yl]-3,5-dimethyl-1H-pyrazol-4-yl}propan-2-ol], for which the IC50 was found to be 205 nM.

On to `Cc1nn(-c2cc(Nc3c(C)c(-c4ccc(F)cc4F)nn3C)ncn2)c(C)c1C(C)(C)O` [Example 378, 2-[1-(6-{[3-(2,4-difluorophenyl)-1,4-dimethyl-1H-pyrazol-5-yl]amino}pyrimidin-4-yl)-3,5-dimethyl-1H-pyrazol-4-yl]propan-2-ol], for which the concentration for half-maximal inhibition (IC50) came to 2550 nM.

On to `Cc1nn(-c2cc(Nc3c(C)c(-c4ccc(C(F)(F)F)cc4)nn3C)ncn2)c(C)c1C(C)(C)O` [Example 379, 2-{1-[6-({1,4-dimethyl-3-[4-(trifluoromethyl)phenyl]-1H-pyrazol-5-yl}amino)pyrimidin-4-yl]-3,5-dimethyl-1H-pyrazol-4-yl}propan-2-ol], for which the half-maximal inhibitory concentration (IC50) is 880 nM.

Consider `Cc1nn(-c2cc(Nc3c(C)c(-c4ccncc4)nn3CC3CC3)ncn2)c(C)c1C(C)(C)O` [Example 380, 2-[1-(6-{[1-(cyclopropylmethyl)-4-methyl-3-(pyridin-4-yl)-1H-pyrazol-5-yl]amino}pyrimidin-4-yl)-3,5-dimethyl-1H-pyrazol-4-yl]propan-2-ol], for which inhibition was half-maximal at 170 nM (IC50). Against the preceding compound, the IC50 is about 5.2-fold lower.

In turn, `Cc1nn(-c2cc(Nc3c(C)c(-c4ccc(F)cc4)nn3CC3CC3)ncn2)c(C)c1C(F)(F)F` [Example 381, N-[1-(cyclopropylmethyl)-3-(4-fluorophenyl)-4-methyl-1H-pyrazol-5-yl]-6-[3,5-dimethyl-4-(trifluoromethyl)-1H-pyrazol-1-yl]pyrimidin-4-amine] had an IC50 of 8 nM.

Turning to `Cc1nn(-c2cc(Nc3c(C)c(-c4ccc(F)cc4)nn3C)ncn2)c(C)c1C(F)(F)F` [Example 382, 6-[3,5-dimethyl-4-(trifluoromethyl)-1H-pyrazol-1-yl]-N-[3-(4-fluorophenyl)-1,4-dimethyl-1H-pyrazol-5-yl]pyrimidin-4-amine], the concentration for half-maximal inhibition (IC50) came to 35 nM. Compared with the last compound, the IC50 is about 4.4-fold higher.

Compound `Cc1nn(-c2cc(Nc3nn(C)c(-c4ccc(F)cc4)c3C)ncn2)c(C)c1C(F)(F)F` [Example 383, 6-[3,5-dimethyl-4-(trifluoromethyl)-1H-pyrazol-1-yl]-N-[5-(4-fluorophenyl)-1,4-dimethyl-1H-pyrazol-3-yl]pyrimidin-4-amine] yielded an IC50 of 5 nM.

In the case of `Cc1nn(-c2cc(Nc3c(C)c(-c4ccncc4)nn3CC3CC3)ncn2)c(C)c1C(F)(F)F` [Example 384, N-[1-(cyclopropylmethyl)-4-methyl-3-(pyridin-4-yl)-1H-pyrazol-5-yl]-6-[3,5-dimethyl-4-(trifluoromethyl)-1H-pyrazol-1-yl]pyrimidin-4-amine], the half-inhibitory concentration (IC50) came to 30 nM.

Regarding `COc1c(C)nn(-c2cc(Nc3c(C)c(-c4ccc(F)cc4)nn3CC3CC3)ncn2)c1C` [Example 385, N-[1-(cyclopropylmethyl)-3-(4-fluorophenyl)-4-methyl-1H-pyrazol-5-yl]-6-(4-methoxy-3,5-dimethyl-1H-pyrazol-1-yl)pyrimidin-4-amine], the IC50 is 4 nM.

`CCc1c(-c2ccc(F)cc2)nn(Cc2nnn(C)n2)c1Nc1cc(-n2nc(C)cc2C)ncn1` [Example 388, 6-(3,5-dimethyl-1H-pyrazol-1-yl)-N-{4-ethyl-3-(4-fluorophenyl)-1-[(2-methyl-2H-tetrazol-5-yl)methyl]-1H-pyrazol-5-yl}pyrimidin-4-amine] returned an IC50 of 64 nM.

Usually IC50 stands for the point on the concentration scale where inhibition reaches its midpoint. Higher therefore signals lower potency.
